Laboratory results: the NIST ThermoML archive (doi:10.1016/j.jct.2009.03.014)
Values joined by “and” are separate entries in the source; they are usually repeats but may differ in a detail not shown here. Equal entries are not always repeated. Numbers after ± are expanded uncertainties.

Tests used:
[1] = Crystal, Calculated from knudsen effusion weight loss
[2] = molar enthalpy of vaporization or sublimation; settings: 298.15 K, Crystal

Structure (SMILES): O=[N+]([O-])c1c(Cl)cc(Cl)cc1Cl [1,3,5-trichloro-2-nitrobenzene]
- vapor or sublimation pressure ([1]; 287.13 K): 0.000143 ± 7e-06 kPa and 0.000137 ± 7e-06 kPa and 0.000136 ± 7e-06 kPa
- vapor or sublimation pressure ([1]; 289.15 K): 0.000183 ± 9e-06 kPa and 0.000176 ± 9e-06 kPa and 0.000174 ± 9e-06 kPa
- vapor or sublimation pressure ([1]; 291.14 K): 0.000231 ± 1.2e-05 kPa and 0.000224 ± 1.1e-05 kPa and 0.000217 ± 1.1e-05 kPa
- vapor or sublimation pressure ([1]; 293.13 K): 0.000295 ± 1.5e-05 kPa and 0.000293 ± 1.5e-05 kPa and 0.000301 ± 1.5e-05 kPa
- vapor or sublimation pressure ([1]; 295.15 K): 0.000387 ± 1.9e-05 kPa and 0.000371 ± 1.9e-05 kPa and 0.000369 ± 1.8e-05 kPa
- vapor or sublimation pressure ([1]; 297.15 K): 0.000487 ± 2.4e-05 kPa and 0.000435 ± 2.2e-05 kPa and 0.000445 ± 2.2e-05 kPa
- vapor or sublimation pressure ([1]; 299.14 K): 0.000651 ± 3.3e-05 kPa and 0.000582 ± 2.9e-05 kPa and 0.000577 ± 2.9e-05 kPa
- vapor or sublimation pressure ([1]; 301.13 K): 0.0008 ± 4e-05 kPa and 0.000723 ± 3.6e-05 kPa and 0.000725 ± 3.6e-05 kPa
- vapor or sublimation pressure ([1]; 303.14 K): 0.000992 ± 5e-05 kPa and 0.000924 ± 4.6e-05 kPa and 0.000927 ± 4.6e-05 kPa
- molar enthalpy ([2]; Drop-Microcalorimetry): 20.1 ± 0.908 kcal/mol

Structure (SMILES): O=[N+]([O-])c1c(Cl)c(Cl)cc(Cl)c1Cl [2,3,5,6-tetrachloronitrobenzene]
- molar enthalpy ([2]; Drop Microcalorimetry): 21.8 ± 1.2 kcal/mol

Structure (SMILES): O=[N+]([O-])c1c(Cl)c(Cl)c(Cl)c(Cl)c1Cl [pentachloronitrobenzene]
- vapor or sublimation pressure ([1]; 317.11 K): 0.000102 ± 5e-06 kPa and 0.000101 ± 5e-06 kPa
- vapor or sublimation pressure ([1]; 319.18 K): 0.000129 ± 6e-06 kPa and 0.000127 ± 6e-06 kPa and 0.000124 ± 6e-06 kPa
- vapor or sublimation pressure ([1]; 321.2 K): 0.00015 ± 8e-06 kPa and 0.000155 ± 8e-06 kPa and 0.000154 ± 8e-06 kPa
- vapor or sublimation pressure ([1]; 323.11 K): 0.000197 ± 1e-05 kPa and 0.000196 ± 1e-05 kPa and 0.000199 ± 1e-05 kPa
- vapor or sublimation pressure ([1]; 325.18 K): 0.000246 ± 1.2e-05 kPa and 0.000245 ± 1.2e-05 kPa and 0.000241 ± 1.2e-05 kPa
- vapor or sublimation pressure ([1]; 327.2 K): 0.000289 ± 1.4e-05 kPa and 0.000296 ± 1.5e-05 kPa and 0.000292 ± 1.5e-05 kPa
- vapor or sublimation pressure ([1]; 329.11 K): 0.000372 ± 1.9e-05 kPa and 0.000367 ± 1.8e-05 kPa and 0.000366 ± 1.8e-05 kPa
- vapor or sublimation pressure ([1]; 331.17 K): 0.000462 ± 2.3e-05 kPa and 0.000453 ± 2.3e-05 kPa and 0.000447 ± 2.2e-05 kPa
- vapor or sublimation pressure ([1]; 333.2 K): 0.000531 ± 2.7e-05 kPa and 0.000549 ± 2.7e-05 kPa and 0.00054 ± 2.7e-05 kPa
- vapor or sublimation pressure ([1]; 335.11 K): 0.000692 ± 3.5e-05 kPa and 0.000673 ± 3.4e-05 kPa and 0.000671 ± 3.4e-05 kPa
- vapor or sublimation pressure ([1]; 337.18 K): 0.000844 ± 4.2e-05 kPa and 0.000833 ± 4.2e-05 kPa and 0.000818 ± 4.1e-05 kPa
- vapor or sublimation pressure ([1]; 339.2 K): 0.000971 ± 4.9e-05 kPa and 0.001009 ± 0.0001 kPa and 0.000993 ± 5e-05 kPa
- molar enthalpy ([2]; Drop Microcalorimetry): 23 ± 1 kcal/mol
